Molecular target: Edmanase (engineered cruzain) (Trypanosoma cruzi, UniProt P25779, C147G/G187S/A260C/L282Y)
Type: biochemical

In the case of `CC(=O)c1nc(Nc2ccccc2)sc1C` [1-(2-anilino-5-methyl-1,3-thiazol-4-yl)-ethanone], the IC50 is reported as 1140 µM.
